# Results taken from patent US20100298141A1, “SUBSTITUTED PYRIDINE N-OXIDE HERBICIDES” (E. I. DU PONT DE NEMOURS AND COMPANY, priority 2007, published 2010).
# Legend:
# Experiment in all cases: Test F preemergence test
# [1] = test system: southern sandbur; assay type: in vivo, Cenchrus echinatus; conditions: scale 0 to 100
# How it was run: (§1)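 Test chemicals in a non-phytotoxic solvent mixture containing a surfactant were applied preemergence to sown seeds or postemergence to sugarcane plants. Treated plants and controls were held in a greenhouse for 14 to 21 days, then visually evaluated against controls.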
# [2] = test system: barnyardgrass; assay type: in vivo, Echinochloa crus-galli
# How it was run: as §1
# [3] = test system: common mallow; assay type: in vivo, Malva sylvestris; conditions: scale 0 to 100
# How it was run: as §1
# [4] = test system: common purslane; assay type: in vivo, Portulaca oleracea; conditions: scale 0 to 100
# How it was run: as §1
# [5] = test system: green foxtail; assay type: in vivo, Setaria viridis; conditions: scale 0 to 100
# How it was run: as §1
# [6] = test system: Canada horseweed; assay type: in vivo, Conyza canadensis; conditions: scale 0 to 100
# From the text: Seeds of plant species selected from bermudagrass (Cynodon dactylon), Surinam grass (Brachiaria decumbens), large crabgrass (Digitaria sanguinalis), green foxtail (Setaria viridis), goosegrass (Eleusine indica), johnsongrass (Sorghum halepense), kochia (Kochia scoparia), pitted morningglory (Ipomoea lacunosa), purple nutsedge (Cyperus rotundus), common ragweed (Ambrosia elation), mustard (Brassica nigra), guineagrass (Panicum maximum), […] (Paspalum dilatatum), barnyardgrass (Echinochloa crus-galli), southern sandbur (Cenchrus echinatus), common sowthistle (Sonchus oleraceous), prickly […] spinosa), Italian ryegrass (Lolium multiflorum), common purslane (Portulaca oleracea), broadleaf signalgrass (Brachiaria platyphylla), common groundsel (Senecio vulgaris), common chickweed (Stellaria media), Virginia dayflower (Commelina virginica), annual bluegrass (Poa annua), naked crabgrass (Digitaria nuda), […] cochinchinensis), quackgrass (Elytrigia repens), Canada horseweed (Conyza canadensis), field bindweed (Convolvulus arvensis), […] (Bidens bipinnata), common mallow (Malva sylvestris), Russian thistle (Salsola kali), and sugarcane (Saccharum officinarum) were planted and treated preemergence with test chemicals formulated in a non-phytotoxic solvent mixture which included a surfactant. At a different time, sugarcane was treated with postemergence applications of some of the test chemicals formulated in the same manner. Plants were approximately 3- to 4-leaf stage for the postemergence treatments. Treated plants and controls were maintained in a greenhouse for 14 to 21 days, after which time all species were compared to controls and visually evaluated. […] A dash (-) response means no test result.
# [7] = test system: guineagrass; assay type: in vivo, Panicum maximum; conditions: scale 0 to 100
# How it was run: as §1
# [8] = test system: bermudagrass; assay type: in vivo, Cynodon dactylon; conditions: scale 0 to 100
# How it was run: as §1
# [9] = test system: annual bluegrass; assay type: in vivo, Poa annua; conditions: scale 0 to 100
# How it was run: as §1
# [10] = test system: prickly sida; assay type: in vivo, Sida spinosa; conditions: scale 0 to 100
# How it was run: as §1
# [11] = test system: mustard; assay type: in vivo, Brassica nigra; conditions: scale 0 to 100
# How it was run: as §1
# [12] = test system: large crabgrass; assay type: in vivo, Digitaria sanguinalis; conditions: scale 0 to 100
# How it was run: as §1
# [13] = test system: field bindweed; assay type: in vivo, Convolvulus arvensis; conditions: scale 0 to 100
# How it was run: as §1
# [14] = test system: Surinam grass; assay type: in vivo, Brachiaria decumbens; conditions: scale 0 to 100
# How it was run: as §1
# [15] = test system: pitted morningglory; assay type: in vivo, Ipomoea lacunosa; conditions: scale 0 to 100
# How it was run: as §1
# [16] = test system: naked crabgrass; assay type: in vivo, Digitaria nuda; conditions: scale 0 to 100
# How it was run: as §1
# [17] = test system: Italian ryegrass; assay type: in vivo, Lolium multiflorum; conditions: scale 0 to 100
# How it was run: as §1
# [18] = test system: common ragweed; assay type: in vivo, Ambrosia elation; conditions: scale 0 to 100
# How it was run: as §1
# [19] = test system: quackgrass; assay type: in vivo, Elytrigia repens; conditions: scale 0 to 100
# How it was run: as §1
smiles,measurement,setting,value
CCn1nc(C(F)(F)F)c(CS(=O)(=O)c2cccc[n+]2[O-])c1OCC(F)(F)F [Compound 63],"Plant response rating, Sandbur","[1]; 16 g ai/ha, preemergence",65
same,Sandbur plant response rating,"[1]; 125 g ai/ha, preemergence",100
same,"Plant response rating, Sandbur","[1]; Preemergence, 62 g ai/ha",100
same,"Plant response rating, Sandbur","[1]; Preemergence, 31 g ai/ha",100
same,"Plant response rating, Barnyardgrass","[2]; 16 g ai/ha, preemergence, scale 0 to 100 (0 no effect, 100 complete control)",80
same,Barnyardgrass plant response rating,"[2]; 62 g ai/ha, Preemergence, scale 0 to 100",95
same,Barnyardgrass plant response rating,"[2]; 125 g ai/ha, preemergence, scale 0 to 100",100
same,"Plant response rating, Barnyardgrass","[2]; Preemergence, 31 g ai/ha, scale 0 to 100",80
same,"Plant response rating, Mallow","[3]; 16 g ai/ha, preemergence",0
same,Mallow plant response rating,"[3]; 125 g ai/ha, preemergence",100
same,"Plant response rating, Mallow","[3]; Preemergence, 31 g ai/ha",98
same,"Plant response rating, Purslane","[4]; 16 g ai/ha, preemergence",0
same,Purslane plant response rating,"[4]; 62 g ai/ha, Preemergence",0
same,Purslane plant response rating,"[4]; 125 g ai/ha, preemergence",20
same,"Plant response rating, Purslane","[4]; Preemergence, 31 g ai/ha",0
same,"Plant response rating, Foxtail, Green","[5]; 16 g ai/ha, preemergence",65
same,"Foxtail, Green plant response rating","[5]; 62 g ai/ha, Preemergence",90
same,"Foxtail, Green plant response rating","[5]; 125 g ai/ha, preemergence",100
same,"Plant response rating, Foxtail, Green","[5]; Preemergence, 31 g ai/ha",80
same,"Plant response rating, Horseweed","[6]; 16 g ai/ha, preemergence",0
same,Horseweed plant response rating,"[6]; 62 g ai/ha, Preemergence",98
same,Horseweed plant response rating,"[6]; 125 g ai/ha, preemergence",100
same,"Plant response rating, Horseweed","[6]; Preemergence, 31 g ai/ha",98
same,"Plant response rating, Guineagrass","[7]; 16 g ai/ha, preemergence",70
same,Guineagrass plant response rating,"[7]; 62 g ai/ha, Preemergence",100
same,Guineagrass plant response rating,"[7]; 125 g ai/ha, preemergence",100
same,"Plant response rating, Guineagrass","[7]; Preemergence, 31 g ai/ha",95
same,"Plant response rating, Bermudagrass","[8]; 16 g ai/ha, preemergence",50
same,Bermudagrass plant response rating,"[8]; 62 g ai/ha, Preemergence",95
same,Bermudagrass plant response rating,"[8]; 125 g ai/ha, preemergence",100
same,"Plant response rating, Bermudagrass","[8]; Preemergence, 31 g ai/ha",80
same,"Plant response rating, Bluegrass","[9]; 16 g ai/ha, preemergence",25
same,Bluegrass plant response rating,"[9]; 62 g ai/ha, Preemergence",90
same,Bluegrass plant response rating,"[9]; 125 g ai/ha, preemergence",100
same,"Plant response rating, Bluegrass","[9]; Preemergence, 31 g ai/ha",65
same,"Plant response rating, Prickly Sida","[10]; 16 g ai/ha, preemergence",20
same,Prickly Sida plant response rating,"[10]; 62 g ai/ha, Preemergence",65
same,Prickly Sida plant response rating,"[10]; 125 g ai/ha, preemergence",90
same,"Plant response rating, Prickly Sida","[10]; Preemergence, 31 g ai/ha",65
same,"Plant response rating, Black Mustard","[11]; 16 g ai/ha, preemergence",0
same,Black Mustard plant response rating,"[11]; 62 g ai/ha, Preemergence",50
same,Black Mustard plant response rating,"[11]; 125 g ai/ha, preemergence",90
same,"Plant response rating, Black Mustard","[11]; Preemergence, 31 g ai/ha",50
same,"Plant response rating, Crabgrass, Large","[12]; 16 g ai/ha, preemergence",25
same,"Crabgrass, Large plant response rating","[12]; 62 g ai/ha, Preemergence",95
same,"Crabgrass, Large plant response rating","[12]; 125 g ai/ha, preemergence",100
same,"Plant response rating, Crabgrass, Large","[12]; Preemergence, 31 g ai/ha",90
same,"Plant response rating, Field Bindweed","[13]; 16 g ai/ha, preemergence",0
same,Field Bindweed plant response rating,"[13]; 62 g ai/ha, Preemergence",0
same,Field Bindweed plant response rating,"[13]; 125 g ai/ha, preemergence",0
same,"Plant response rating, Field Bindweed","[13]; Preemergence, 31 g ai/ha",0
same,"Plant response rating, Surinam Grass","[14]; 16 g ai/ha, preemergence",70
same,Surinam Grass plant response rating,"[14]; 125 g ai/ha, preemergence",100
same,"Plant response rating, Surinam Grass","[14]; Preemergence, 62 g ai/ha",100
same,"Plant response rating, Surinam Grass","[14]; Preemergence, 31 g ai/ha",80
same,"Plant response rating, Morningglory","[15]; 16 g ai/ha, preemergence",0
same,Morningglory plant response rating,"[15]; 62 g ai/ha, Preemergence",0
same,Morningglory plant response rating,"[15]; 125 g ai/ha, preemergence",35
same,"Plant response rating, Morningglory","[15]; Preemergence, 31 g ai/ha",0
same,"Plant response rating, Crabgrass, Naked","[16]; 16 g ai/ha, preemergence",70
same,"Crabgrass, Naked plant response rating","[16]; 62 g ai/ha, Preemergence",100
same,"Crabgrass, Naked plant response rating","[16]; 125 g ai/ha, preemergence",100
same,"Plant response rating, Crabgrass, Naked","[16]; Preemergence, 31 g ai/ha",70
same,"Plant response rating, Ryegrass, Italian","[17]; 16 g ai/ha, preemergence",0
same,"Ryegrass, Italian plant response rating","[17]; 125 g ai/ha, preemergence",100
same,"Plant response rating, Ryegrass, Italian","[17]; Preemergence, 62 g ai/ha",80
same,"Plant response rating, Ryegrass, Italian","[17]; Preemergence, 31 g ai/ha",60
same,"Plant response rating, Ragweed","[18]; 16 g ai/ha, preemergence",0
same,Ragweed plant response rating,"[18]; 125 g ai/ha, preemergence",100
same,"Plant response rating, Ragweed","[18]; Preemergence, 62 g ai/ha",90
same,"Plant response rating, Ragweed","[18]; Preemergence, 31 g ai/ha",40
same,"Plant response rating, Quackgrass","[19]; 16 g ai/ha, preemergence",0
same,Quackgrass plant response rating,"[19]; 62 g ai/ha, Preemergence",95
same,Quackgrass plant response rating,"[19]; 125 g ai/ha, preemergence",100
same,"Plant response rating, Quackgrass","[19]; Preemergence, 31 g ai/ha",65
